In patent US20240287076A1, “COMPOUNDS FOR TARGETING DEGRADATION OF BRUTON'S TYROSINE KINASE” (BIOGEN MA INC., priority 2021, published 2024):

The compounds below were run against T1, BTK (Homo sapiens, UniProt Q06187) (assay: BTK degradation assay using the HiBiT Method (Nano-Glo HiBiT Lytic Assay, GM01501.3 cells)). Conditions: HiBiT Degradation on GM01501.3 BTK @ 6 hours.
T1 construct: The GM01501.3 cell line endogenously expresses BTK with a HiBiT fusion tag via CRISPR knock-in at its C-terminal region; endogenous in cells; host or cells: GM01501.3 (GM01501 cells engineered by CRISPR knock-in of HiBiT at the BTK locus)
T1 sequence (Q06187 whole entry, the tested form may be a part): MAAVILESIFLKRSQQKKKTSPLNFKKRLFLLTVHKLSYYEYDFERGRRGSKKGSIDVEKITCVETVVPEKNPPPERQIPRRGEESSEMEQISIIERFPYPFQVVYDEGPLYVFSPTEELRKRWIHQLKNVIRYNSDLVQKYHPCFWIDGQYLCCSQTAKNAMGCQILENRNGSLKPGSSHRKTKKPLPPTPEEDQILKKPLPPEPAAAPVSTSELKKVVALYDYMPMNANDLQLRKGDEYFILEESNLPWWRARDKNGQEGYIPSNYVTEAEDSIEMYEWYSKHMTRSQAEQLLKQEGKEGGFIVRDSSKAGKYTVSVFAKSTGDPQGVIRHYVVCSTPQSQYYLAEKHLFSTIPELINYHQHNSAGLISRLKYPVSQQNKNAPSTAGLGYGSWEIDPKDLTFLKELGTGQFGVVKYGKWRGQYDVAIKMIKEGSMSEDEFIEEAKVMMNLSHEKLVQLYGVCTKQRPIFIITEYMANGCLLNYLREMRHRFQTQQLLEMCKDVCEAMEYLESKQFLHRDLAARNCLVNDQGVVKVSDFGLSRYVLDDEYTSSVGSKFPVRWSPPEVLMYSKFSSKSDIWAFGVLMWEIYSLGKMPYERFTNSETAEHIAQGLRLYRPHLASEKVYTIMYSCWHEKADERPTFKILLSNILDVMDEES
Format: cell-based
How it was run: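 CRISPR knock-in GM01501.3 cells expressing endogenous BTK with C-terminal HiBiT tag, treated 6 h at 37 °C with compounds, 11-point half-log titration from 10 μM top, duplicates. Remaining BTK quantified by Nano-Glo HiBiT lytic luminescence versus DMSO controls; DC50 reported.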

Row | DC50 [nM] | SMILES
1 | < 100 | Cn1nc(N2CCC(=O)NC2=O)c2ccc(C3CCN(Cc4ccc(-c5cc6c(-c7ccc(CNC(=O)c8noc(C(C)(C)C)n8)c(F)c7)ncnn6c5)cc4F)CC3)cc21 [Example 33, 5-tert-butyl-N-[[4-[6-[4-[[4-[3-(2,4-dioxohexahydropyrimidin-1-yl)-1-methyl-indazol-6-yl]-1-piperidyl]methyl]-3-fluoro-phenyl]pyrrolo[2,1-f][1,2,4]triazin-4-yl]-2-fluoro-phenyl]methyl]-1,2,4-oxadiazole-3-carboxamide]
2 | < 100 | O=C1CCC(Nc2ccc(C3CCN(Cc4ccc(-c5cc6c(-c7ccc(CNC(=O)c8ccc(C(F)F)cc8)c(F)c7)ncnn6c5)cc4)CC3)nc2)C(=O)N1 (stereo not drawn) [Example 102, 4-(difluoromethyl)-N-[[4-[6-[4-[[4-[5-[(2,6-dioxo-3-piperidyl)amino]-2-pyridyl]-1-piperidyl]methyl]phenyl]pyrrolo[2,1-f][1,2,4]triazin-4-yl]-2-fluoro-phenyl]methyl]benzamide]
3 | 100 to 500 | Cc1cc(-c2ncnn3cc(-c4cccc5c(CN6CCC(c7ccc(C8CCC(=O)NC8=O)cc7)CC6)n(C)nc45)cc23)ccc1CNC(=O)c1noc(C(C)(C)C)n1 (stereo not drawn) [Example 212, 5-(tert-butyl)-N-(4-(6-(3-((4-(4-(2,6-dioxopiperidin-3-yl)phenyl)piperidin-1-yl)methyl)-2-methyl-2H-indazol-7-yl)pyrrolo[2,1-f][1,2,4]triazin-4-yl)-2-methylbenzyl)-1,2,4-oxadiazole-3-carboxamide]
4 | < 100 | Cc1cc(-c2ncnn3cc(CCCCN4CCC(c5ccc6c(N7CCC(=O)NC7=O)nn(C)c6c5)CC4)cc23)ccc1CNC(=O)c1cnn(C(C)(C)C)c1 [Example 281, 1-(tert-butyl)-N-(4-(6-(4-(4-(3-(2,4-dioxotetrahydropyrimidin-1(2H)-yl)-1-methyl-1H-indazol-6-yl)piperidin-1-yl)butyl)pyrrolo[2,1-f][1,2,4]triazin-4-yl)-2-methylbenzyl)-1H-pyrazole-4-carboxamide]
5 | < 100 | Cc1cc(-c2ncnn3cc(CCN4CCC(c5ccc(NC6CCC(=O)NC6=O)cc5)CC4)cc23)ccc1CNC(=O)c1noc(C(C)(C)C)n1 (stereo not drawn) [Example 117, 5-tert-butyl-N-[[4-[6-[2-[4-[4-[(2,6-dioxo-3-piperidyl)amino]phenyl]-1-piperidyl]ethyl]pyrrolo[2,1-f][1,2,4]triazin-4-yl]-2-methyl-phenyl]methyl]-1,2,4-oxadiazole-3-carboxamide]
6 | < 100 | Cc1cc(-c2ncnn3cc(-c4cccc(CCN5CCC(c6ccc(NC7CCC(=O)NC7=O)cc6)CC5)c4)cc23)ccc1CNC(=O)c1noc(C(C)(C)C)n1 (stereo not drawn) [Example 54, 5-tert-butyl-N-[[4-[6-[3-[2-[4-[4-[(2,6-dioxo-3-piperidyl)amino]phenyl]-1-piperidyl]ethyl]phenyl]pyrrolo[2,1-f][1,2,4]triazin-4-yl]-2-methyl-phenyl]methyl]-1,2,4-oxadiazole-3-carboxamide]
7 | < 100 | Cn1nc(N2CCC(=O)NC2=O)c2ccc(C3CCN(Cc4ccc(-c5cc6c(-c7ccc(CNC(=O)c8noc(C(C)(C)C)n8)c(F)c7)ncnn6c5)nc4)CC3)cc21 [Example 243, 5-(tert-butyl)-N-(4-(6-(5-((4-(3-(2,4-dioxotetrahydropyrimidin-1(2H)-yl)-1-methyl-1H-indazol-6-yl)piperidin-1-yl)methyl)pyridin-2-yl)pyrrolo[2,1-f] [1,2,4]triazin-4-yl)-2-fluorobenzyl)-1,2,4-oxadiazole-3-carboxamide]
8 | < 100 | Cc1cc(-c2ncnn3cc(-c4ccc(CN5CCC(c6ccc7c(N8CCC(=O)NC8=O)nn(C)c7c6)CC5)cc4)cc23)ccc1CNC(=O)c1noc(C(C)(C)C)n1 [Example 28, 5-tert-butyl-N-[[4-[6-[4-[[4-[3-(2,4-dioxohexahydropyrimidin-1-yl)-1-methyl-indazol-6-yl]-1-piperidyl]methyl]phenyl]pyrrolo[2,1-f][1,2,4]triazin-4-yl]-2-methyl-phenyl]methyl]-1,2,4-oxadiazole-3-carboxamide]
9 | < 100 | CC(C)(C)c1nc(C(=O)NCc2ccc(-c3ncnn4cc(CCN5CCC(c6ccc(NC7CCC(=O)NC7=O)cc6)CC5)cc34)cc2F)no1 (stereo not drawn) [Example 120, 5-tert-butyl-N-[[4-[6-[2-[4-[4-[(2,6-dioxo-3-piperidyl)amino]phenyl]-1-piperidyl]ethyl]pyrrolo[2,1-f][1,2,4]triazin-4-yl]-2-fluoro-phenyl]methyl]-1,2,4-oxadiazole-3-carboxamide]
10 | < 100 | Cc1cc(-c2ncnn3cc(CCN4CCC(c5ccc6c(N7CCC(=O)NC7=O)nn(C)c6c5F)CC4)cc23)ccc1CNC(=O)c1noc(C(C)(C)C)n1 [Example 259, 5-(tert-butyl)-N-(4-(6-(2-(4-(3-(2,4-dioxotetrahydropyrimidin-1(2H)-yl)-7-fluoro-1-methyl-1H-indazol-6-yl)piperidin-1-yl)ethyl)pyrrolo[2,1-f][1,2,4]triazin-4-yl)-2-methylbenzyl)-1,2,4-oxadiazole-3-carboxamide]
11 | < 100 | Cc1cc(-c2ncnn3cc(N4CCN(C(=O)CCc5ccccc5CNC(=O)c5ccc(OC6CCC(=O)NC6=O)cc5)CC4)cc23)ccc1CNC(=O)c1noc(C(C)(C)C)n1 (stereo not drawn) [Example 183, 5-(tert-butyl)-N-(4-(6-(4-(3-(2-((4-((2,6-dioxopiperidin-3-yl)oxy)benzamido)methyl)phenyl)propanoy 1)piperazin-1-yl)pyrrolo[2,1-f][1,2,4]triazin-4-y1)-2-methylbenzyl)-1,2,4-oxadiazole-3-carboxamide]
12 | < 100 | Cc1cc(-c2ncnn3cc(-c4ccc(CN5CCC(c6ccc7c(N8CCC(=O)NC8=O)nn(C)c7c6)CC5)c(F)c4)cc23)ccc1CNC(=O)c1noc(C(C)(C)C)n1 [Example 245, 5-(tert-butyl)-N-(4-(6-(4-((4-(3-(2,4-dioxotetrahydropyrimidin-1(^2H)-yl)-1-methyl-1H-indazol-6-yl)piperidin-1-yl)methyl)-3-fluorophenyl)pyrrolo[2,1-f][1,2,4]triazin-4-yl)-2-methylbenzyl)-1,2,4-oxadiazole-3-carboxamide]
13 | < 100 | Cc1cc(-c2ncnn3cc(-c4ccc(CN5CCC(c6ccc(NC7CCC(=O)NC7=O)nn6)CC5)cc4)cc23)ccc1CNC(=O)c1noc(C(C)(C)C)n1 (stereo not drawn) [Example 31, 5-tert-butyl-N-[[4-[6-[4-[[4-[6-[(2,6-dioxo-3-piperidyl)amino]pyridazin-3-yl]-1-piperidyl]methyl]phenyl]pyrrolo[2,1-f][1,2,4]triazin-4-yl]-2-methyl-phenyl]methyl]-1,2,4-oxadiazole-3-carboxamide]
14 | < 100 | Cc1cc(-c2ncnn3cc(-c4ccc(CN5CCC(c6ccc(NC7CCC(=O)NC7=O)cc6)CC5)cc4)cc23)ccc1CNC(=O)c1cnc(C(C)C)cn1 (stereo not drawn) [Example 91, N-[[4-[6-[4-[[4-[4-[(2,6-dioxo-3-piperidyl)amino]phenyl]-1-piperidyl]methyl]phenyl]pyrrolo[2,1-f][1,2,4]triazin-4-yl]-2-methyl-phenyl]methyl]-5-isopropyl-pyrazine-2-carboxamide]
15 | < 100 | CC(C)(C)c1nc(C(=O)NCc2ccc(-c3ncnn4cc(-c5ccc(CN6CCC(c7ccc(NC8CCC(=O)NC8=O)cc7)CC6)cc5)cc34)cc2)no1 (stereo not drawn) [Example 41, 5-tert-butyl-N-[[4-[6-[4-[[4-[4-[(2,6-dioxo-3-piperidyl)amino]phenyl]-1-piperidyl]methyl]phenyl]pyrrolo[2,1-f][1,2,4]triazin-4-yl]phenyl]methyl]-1,2,4-oxadiazole-3-carboxamide]
